{"source": "patent US11612634B2", "about": "(priority 2020, dated 2023)", "key": {"[1]": {"system": "morphine analgesic tolerance, inflammatory pain rat model", "experiment": "Effect on morphine analgesic tolerance in Carr-induced inflammatory pain rat model", "assay_type": "in vivo", "conditions": "for effect on morphine analgesic tolerance: every 2 h", "description": "The Carr-induced inflammatory pain model was built according to a published method (Alessandri-Haber N, et al. Neurosci. Vol 29(19), pp. 6217-6288, 2009) for evaluating an analgesic effect of drugs administered by intraplantar injection. Specifically, 6 μL of 1 wt % Carr solution was injected into the rats between the 2nd and 3rd toes of a left hind paw to induce hyperalgesia, which was manifested as plantar swelling and a declined pain threshold of the rats within 1 hour after the injection. Those rats with a PWT lower than 100 gf were considered to be a desired Carr-induced inflammatory pain model, those rats with the PWT higher than 100 gf was removed.\n(1) 24 healthy adult SD rats, weighing 180-220 g, were selected, reinjected with 6 μL of a 1 wt % Carr solution and divided into 4 groups randomly and averagely (i.e., groups A-D). The group A was injected with normal saline; the group B was intradermally injected with 0.1 μg/kg of the short peptide P10581 through the plantar surface of the left hind paw; the group C was intradermally injected with 0.1 μg/kg of the short peptide P10581 and then with 5 mg/kg of morphine 30 min later through the plantar surface of the left hind paw; and the group D was intradermally injected with 0.05 μg/kg of the short peptide P10581, and then with 5 mg/kg of morphine 30 min later through the plantar surface of the left hind paw. 1 h later, the PWT of each group was recorded when the mechanical withdrawal of the left hind paw occurred, and each rat was measured 3-5 times at an interval of 5-10 min.\n(2) The drug was injected every 2 h according to the above-mentioned administration dose and time (seven times in total), and the PWT was recorded.\n(S1) By means of molecular biological techniques, two cysteine residues (Cys10 and Cys11) in the short peptide P10581 were replaced with alanine (Ala), and the resulting peptide was named P10581-1 (SEQ ID NO: 2).\n(S2) Three cysteine residues (Cys10, Cys11 and Cys17) in the short peptide P10581 were replaced with alanine (Ala), and the resulting peptide was named P10581-2 (SEQ ID NO: 3).\nThe rat was injected with 6 μL of 1 wt % Carr to establish a Carr-induced inflammatory pain model, and the effect of the short peptides P10581, P10581-1 and P10581-2 on the morphine analgesic tolerance was analyzed according to Experimental Example 1. […]"}, "[2]": {"system": "morphine analgesic tolerance, BCP rat model", "experiment": "Effect on morphine analgesic tolerance in BCP rat model", "assay_type": "in vivo", "description": "The successfully-established BCP model rats were divided into 4 groups randomly on the 22nd day after modeling, where the group A was injected with 0.2 μg/kg of the short peptide P10581; the group B was injected with 0.2 μg/kg of the short peptide P10581, and injected with 5 mg/kg of the morphine 30 min later; the group C was injected with 0.4 μg/kg of the short peptide P10581; and the group D was injected with 0.4 μg/kg of the short peptide P10581, and injected with 5 mg/kg of the morphine 30 min later. 1 h later, the PWT of the right hind paw of each group was recorded. Each of the rats was measured 3-5 times with an interval of 5-10 min, and the PWTs were averaged to taken as the practical PWT (unit: g). The drug administration was performed twice a day (at 9:30 a.m. and 4:30 p.m.) for consecutive 4 days, and the PWT of each group before and after the administration in the morning was measured.\nΔPWT (%) in FIG. 15D was calculated as follows: ΔPWT(%)=100*{[PWT(post-drug)−PWT(pre-drug)]/ΔPWT(Maxi)}(%): […]"}}, "note": "Entries after “also recorded” stand apart in the source; their conditions may differ.", "data": [{"sequence": "WKCNPNDDKCCRPKLKC [P10581]", "values": [{"measurement": "effect on morphine analgesic tolerance", "setting": "[1]; 0.05 μg/kg peptide i.d. 30 min before 5 mg/kg morphine", "result": "morphine analgesic tolerance can be eliminated; also recorded: completely eliminate the morphine analgesic tolerance"}, {"measurement": "duration of eliminating effect on morphine analgesic tolerance", "setting": "[1]; 0.1 μg/kg and 0.05 μg/kg peptide with 5 mg/kg morphine", "result": "over 14 h"}, {"measurement": "effect on morphine analgesic tolerance", "setting": "[1]; 0.1 μg/kg peptide i.d. 30 min before 5 mg/kg morphine", "result": "morphine analgesic tolerance can be eliminated; also recorded: completely eliminated"}, {"measurement": "dose at which morphine analgesic tolerance is effectively alleviated", "setting": "[1]; inflammatory pain, rats", "result": "≥ 0.05", "unit": "µg/kg"}, {"measurement": "reversal of morphine analgesic tolerance for BCP", "setting": "[2]; 0.2 μg/kg peptide S.C. before 5 mg/kg morphine, twice a day, 4 days", "result": 73.9, "unit": "%"}, {"measurement": "restoration of analgesic effect of morphine on BCP", "setting": "[2]; 0.4 μg/kg peptide S.C. before 5 mg/kg morphine, repeated", "result": "completely restored"}, {"measurement": "dose at which morphine analgesic tolerance is effectively eliminated", "setting": "[2]; BCP, rats", "result": "≥ 0.20", "unit": "µg/kg"}]}]}
